In PubChem BioAssay AID1919001 (Molecular Pharmacology Branch, DTP, NCI, 2023):
Values belong to the compound of their own block, whether it stands above or below them.

Tested on: 699152-130-R-J1-PDC complex spheroid growth
Test: Anticancer human tumor 699152-130-R-J1-PDC patient-derived pancreatic carcinoma cell line growth inhibition [AhR]
Details: for viability, T/C: stronger effect = lower value
From the text: Multicellular complex tumor spheroid response to aryl hydrocarbon receptor antagonists in combination with a variety of drugs and investigational agents in selected tumor cell lines
The current study was undertaken to assess response to aryl hydrocarbon receptor antagonists in combination with standard-of-care drugs and investigational agents in solid tumor complex spheroid models. Complex spheroids include a stromal component modeled by human endothelial cells (HUVEC) and fibroblasts modeled by human mesenchymal stem cells (MSCs). The concentration ranges selected for each drug and investigational agent were based upon clinically achievable concentrations if the clinical Cmax of the agent was known.
Compounds. The drugs and investigational agents: BAY 2416964 (NSC825713), GNF351 (NSC835774), CH-223191 (NSC835775), CPI-455 (NSC825282), aza-TdCyd (NSC777586), decitabine (NSC127716), belinostat (NSC758774), entinostat (NSC756642), pevonedistat (NSC761192), tazemetostat (NSC777109), talazoparib (NSC765396), olaparib (NSC753686), selinexor (NSC780203), nedisertib (M3814, NSC802822), bortezomib (NSC756655), venetoclax (NSC766270), doxorubicin (NSC123127), elimusertib (BAY189344, NSC800525), ceralasertib (AZD6738, NSC777638), TAK-243 (NSC785004), alisertib (NSC759677), etoposide (NSC141540), topotecan (NSC609699), eribulin (NSC707389), gemcitabine (NSC613327), carboplatin (NSC241240), cisplatin (NSC119875), and SN-38 (NSC673596) were obtained from the National Cancer Institute (NCI) Developmental Therapeutics Program Chemical Repository (32). The FDA-approved anticancer drug set is available from the Developmental Therapeutics Program at https://dtp.cancer.gov/organization/dscb/obtaining/available plates.htm. […] The stock solutions were prepared in dimethyl sulfoxide (DMSO, Sigma-Aldrich, St. Louis, MO, cat. D2650), except for the platinum compounds which were prepared in saline (Quality Biological, Gaithersburg, MD, cat. 114-055-101), at 800-fold the tested concentration and stored at -70 degrees C prior to their use. All drugs and investigational agents were tested over a range starting from a high concentration at or near the clinical Cmax and decreasing in half-log increments. If the clinical Cmax for an agent had not been determined, the highest concentration tested was 10 microM (Table 1).
Cell Culture. All cells were maintained in an incubator at 37 degrees C and 5% CO2 with 95% humidity. The PDC lines were cultured according to standard operating procedures established by the NCI PDMR (https://pdmr.cancer.gov). Briefly, all PDCs were thawed and cultured in Matrigel-coated flasks prepared with a working solution of 1X Ham's F-12 nutrient mix, without supplementation (Invitrogen, Waltham, MA, cat. 11765054), 100 U/mL penicillin-streptomycin (Invitrogen, cat. 15140122), and 2.5% Matrigel (Corning Inc., Corning, NY, cat. 354248) for the first three passages. All PDCs were cultured in complete DMEM/F-12 media containing advanced DMEM/F-12 (Invitrogen, cat. 12634028), 4.9% defined fetal bovine serum, heat inactivated (HyClone Laboratories Inc., Logan, UT, cat. SH30070.03HI), 389 ng/mL hydrocortisone (Sigma-Aldrich, cat. H4001), 9.7 ng/mL human EGF recombinant protein (Invitrogen, cat. PHG0313), 23.4 microg/mL adenine (Sigma-Aldrich, cat. A2786), 97.3 U/mL penicillin-streptomycin (Invitrogen, cat. 15140122), 1.9 mM L-glutamine (Invitrogen, cat. 25030081), and 9.7 microM Y-27632 dihydrochloride (Tocris Bioscience, Bristol, United Kingdom, cat. 1254). The PDCs were cultured in complete DMEM/F12 media without 10 microM Y-27632 dihydrochloride for at least two passages prior to the screen. The established cell lines NCI-H1341 and […] were cultured in DMEM/F-12, HEPES (Invitrogen, cat. 11330032), 5% defined fetal bovine serum (HyClone Laboratories Inc., cat. SH30070.03), ITS premix universal culture supplement [insulin (5 microg/mL), transferrin (5 microg/mL), and selenious acid (5 ng/mL)] […]

[1] = curve of first compound, second compound 0.1 µM
[2] = curve of first compound, second compound 0.316 µM
[3] = curve of first compound, second compound 1 µM
[4] = curve of first compound, second compound 3.16 µM
[5] = curve of first compound, second compound 10 µM
[6] = second compound 0.1 µM, first compound 0.00949 µM
[7] = second compound 0.1 µM, first compound 0.03 µM
[8] = second compound 0.1 µM, first compound 0.0949 µM
[9] = second compound 0.1 µM, first compound 0.3 µM
[10] = second compound 0.316 µM, first compound 0.00949 µM
[11] = second compound 0.316 µM, first compound 0.03 µM
[12] = second compound 0.316 µM, first compound 0.0949 µM
[13] = second compound 0.316 µM, first compound 0.3 µM
[14] = second compound 1 µM, first compound 0.00949 µM
[15] = second compound 1 µM, first compound 0.03 µM
[16] = second compound 1 µM, first compound 0.0949 µM
[17] = second compound 1 µM, first compound 0.3 µM
[18] = second compound 3.16 µM, first compound 0.00949 µM
[19] = second compound 3.16 µM, first compound 0.03 µM
[20] = second compound 3.16 µM, first compound 0.0949 µM
[21] = second compound 3.16 µM, first compound 0.3 µM
[22] = second compound 10 µM, first compound 0.00949 µM
[23] = second compound 10 µM, first compound 0.03 µM
[24] = second compound 10 µM, first compound 0.0949 µM
[25] = second compound 10 µM, first compound 0.3 µM
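Also: compound exposure lasted 7 days after spheroids had grown for 3 days.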

IC50 (compound alone, run of 07/26/2022): > 10000 nM
SMILES: Cc1ccccc1N=Nc1ccc(NC(=O)c2ccnn2C)c(C)c1

IC50 [1]: > 10000 nM
IC50 [2]: > 10000 nM
IC50 [3]: > 10000 nM
IC50 [4]: > 10000 nM
IC50 [5]: < 31.6 nM
SMILES: O=C(C=Cc1cccc(S(=O)(=O)Nc2ccccc2)c1)NO + Cc1cncc(-c2nc(NCCc3c[nH]c4ccccc34)c3ncn(C(C)C)c3n2)c1
viability, T/C (second compound 0.1 µM, first compound 0.0316 µM): 110%
viability, T/C (second compound 0.1 µM, first compound 0.1 µM): 96.5%
viability, T/C (second compound 0.1 µM, first compound 0.316 µM): 102%
viability, T/C (second compound 0.1 µM, first compound 1 µM): 117%
viability, T/C (second compound 0.1 µM, first compound 3.16 µM): 98.8%
viability, T/C (second compound 0.1 µM, first compound 10 µM): 91.3%
viability, T/C (second compound 0.316 µM, first compound 0.0316 µM): 114%
viability, T/C (second compound 0.316 µM, first compound 0.1 µM): 96%
viability, T/C (second compound 0.316 µM, first compound 0.316 µM): 101%
viability, T/C (second compound 0.316 µM, first compound 1 µM): 112%
viability, T/C (second compound 0.316 µM, first compound 3.16 µM): 101%
viability, T/C (second compound 0.316 µM, first compound 10 µM): 82.8%
viability, T/C (second compound 1 µM, first compound 0.0316 µM): 112%
viability, T/C (second compound 1 µM, first compound 0.1 µM): 120%
viability, T/C (second compound 1 µM, first compound 0.316 µM): 121%
viability, T/C (second compound 1 µM, first compound 1 µM): 109%
viability, T/C (second compound 1 µM, first compound 3.16 µM): 96.6%
viability, T/C (second compound 1 µM, first compound 10 µM): 87.5%
viability, T/C (second compound 3.16 µM, first compound 0.0316 µM): 108%
viability, T/C (second compound 3.16 µM, first compound 0.1 µM): 105%
viability, T/C (second compound 3.16 µM, first compound 0.316 µM): 109%
viability, T/C (second compound 3.16 µM, first compound 1 µM): 86.4%
viability, T/C (second compound 3.16 µM, first compound 3.16 µM): 81.8%
viability, T/C (second compound 3.16 µM, first compound 10 µM): 79%
viability, T/C (second compound 10 µM, first compound 0.0316 µM): 27.2%
viability, T/C (second compound 10 µM, first compound 0.1 µM): 20.6%
viability, T/C (second compound 10 µM, first compound 0.316 µM): 21.4%
viability, T/C (second compound 10 µM, first compound 1 µM): 19.4%
viability, T/C (second compound 10 µM, first compound 3.16 µM): 17%
viability, T/C (second compound 10 µM, first compound 10 µM): 10.1%

IC50 (compound alone, run of 07/12/2022): > 10000 nM
SMILES: CC(CO)NC(=O)c1cc(-c2ccc(Cl)cc2)nn(-c2cnn(C)c2)c1=O (stereo not drawn)
viability, T/C (compound 0.1 µM): 92.1% [middle of 21 runs]

More lines, now with the values behind:

SMILES: O=C(C=Cn1cnc(-c2cc(C(F)(F)F)cc(C(F)(F)F)c2)n1)NNc1cnccn1 + Cc1ccccc1N=Nc1ccc(NC(=O)c2ccnn2C)c(C)c1
IC50 [1]: > 3000 nM
IC50 [2]: > 3000 nM
IC50 [3]: > 3000 nM
IC50 [4]: > 3000 nM
IC50 [5]: > 3000 nM
viability, T/C [6]: 92.5%
viability, T/C [7]: 84.5%
viability, T/C [8]: 87.8%
viability, T/C [9]: 75.1%
viability, T/C (second compound 0.1 µM, first compound 0.949 µM): 78.1%
viability, T/C (second compound 0.1 µM, first compound 3 µM): 57.5%
viability, T/C [10]: 85.5%
viability, T/C [11]: 82%
viability, T/C [12]: 82.7%
viability, T/C [13]: 79.3%
viability, T/C (second compound 0.316 µM, first compound 0.949 µM): 69.1%
viability, T/C (second compound 0.316 µM, first compound 3 µM): 58%
viability, T/C [14]: 92%
viability, T/C [15]: 90.8%
viability, T/C [16]: 93.2%
viability, T/C [17]: 78.7%
viability, T/C (second compound 1 µM, first compound 0.949 µM): 74.2%
viability, T/C (second compound 1 µM, first compound 3 µM): 61.6%
viability, T/C [18]: 97.6%
viability, T/C [19]: 115%
viability, T/C [20]: 98.6%
viability, T/C [21]: 69.6%
viability, T/C (second compound 3.16 µM, first compound 0.949 µM): 76.4%
viability, T/C (second compound 3.16 µM, first compound 3 µM): 66.6%
viability, T/C [22]: 120%
viability, T/C [23]: 112%
viability, T/C [24]: 91.7%
viability, T/C [25]: 77.5%
viability, T/C (second compound 10 µM, first compound 0.949 µM): 69.9%
viability, T/C (second compound 10 µM, first compound 3 µM): 69.7%

SMILES: CCc1c2c(nc3ccc(O)cc13)-c1cc3c(c(=O)n1C2)COC(=O)[C@]3(O)CC + Cc1ccccc1N=Nc1ccc(NC(=O)c2ccnn2C)c(C)c1
IC50 [1]: 12.8 nM
IC50 [2]: 15 nM
IC50 [3]: 12.3 nM
IC50 [4]: 22.3 nM
IC50 [5]: 44.4 nM
viability, T/C (second compound 0.1 µM, first compound 0.000949 µM): 87.4%
viability, T/C (second compound 0.1 µM, first compound 0.003 µM): 86.4%
viability, T/C [6]: 52.5%
viability, T/C [7]: 46.3%
viability, T/C [8]: 46.9%
viability, T/C [9]: 34.1%
viability, T/C (second compound 0.316 µM, first compound 0.000949 µM): 103%
viability, T/C (second compound 0.316 µM, first compound 0.003 µM): 80%
viability, T/C [10]: 52.2%
viability, T/C [11]: 47.1%
viability, T/C [12]: 41.8%
viability, T/C [13]: 38.9%
viability, T/C (second compound 1 µM, first compound 0.000949 µM): 85%
viability, T/C (second compound 1 µM, first compound 0.003 µM): 78.2%
viability, T/C [14]: 50.8%
viability, T/C [15]: 45%
viability, T/C [16]: 39.6%
viability, T/C [17]: 34.2%
viability, T/C (second compound 3.16 µM, first compound 0.000949 µM): 95.7%
viability, T/C (second compound 3.16 µM, first compound 0.003 µM): 82%
viability, T/C [18]: 57.2%
viability, T/C [19]: 45.6%
viability, T/C [20]: 42.8%
viability, T/C [21]: 29.7%
viability, T/C (second compound 10 µM, first compound 0.000949 µM): 115%
viability, T/C (second compound 10 µM, first compound 0.003 µM): 87.5%
viability, T/C [22]: 60.5%
viability, T/C [23]: 51.2%
viability, T/C [24]: 49.9%
viability, T/C [25]: 39.4%
